Assay results as given in patent US20080187512A1, “Treatment for spinal muscular atrophy” (Academia Sinica, priority 2007, published 2008).

Assays:
Format in all cases: cell-based, mouse
SMN2 [1] = test: SMN2 splicing pattern, semi-quantitative RT-PCR in SMA-like MEFs; parameters: key to SMN2 splicing pattern MEF: −: no effect; +: effective; +++: most effective; settings: SMA-like MEFs; for SMN2 splicing pattern MEF: TSA 10 nM, sodium butyrate 25 mM, aclarubicin 80 nM, sodium vanadate 50 μM; for influence on SMN2 expression: time-course RT-PCR
P38 (pT180/pY182) = test: Signaling pathway screen in SMN2-NSC34 cells
Stat1 (pY701) = test: Signaling pathway screen in SMN2-NSC34 cells
Stat6 (pT641) = test: Signaling pathway screen in SMN2-NSC34 cells
ERK1/2 (pT202/pY204) = test: Signaling pathway screen in SMN2-NSC34 cells
Stat3 (pY705) = test: Signaling pathway screen in SMN2-NSC34 cells
Stat5 (pT694) = test: Signaling pathway screen in SMN2-NSC34 cells; parameters: Stat5 (pT694) cellular response: key: −: decreasing; +/−: no activation; +: slight activation; ++: minor activation; +++: significant activation; settings: SMN2-NSC34 cells; for phosphorylation level of Stat5 increased compared to control cells: treatment for 4 hours, α-tubulin internal control
Protocol: (§1) Western blot analysis. Cells treated by dsRNA, compounds or Stat5A1*6 transfected were detached by scraping, pelletting and rinsing in PBS. Cell pellets were collected after centrifugation and lysed on ice in modified RIPA buffer (50 mM Tris-HCl (pH7.4), 1% NP-40, 0.25% deoxycholic acid, 0.15M NaCl, 1 mM EDTA, 1 mM PMSF/NaF/sodium orthovanadate, and protease inhibitors cocktail (Roche, Mannheim, Germany) for 30 min. After centrifugation, the supernatants were collected and kept frozen at −20° C. Protein concentrations were determined by Bio-Rad protein assay method. For Western blot analysis, protein samples were boiled for 5 min and electrophoresed on 8% or 10% SDS-polyacrylamide gel in a 1× running buffer (25 mM Tris, 192 mM glycine, 3.4 mM SDS, pH 8.3) and subsequently electrotransferred to Polyvinylidene Fluoride tansfer membrane (Pall, Pensacola, Fla.) using a TE 22 mini-tank transfer unit (Amersham Biosciences, San Francisco, Calif.) at 35 volts overnight in transfer buffer (25 mM Tris, 192 mM glycine, 20% methanol, pH8.3). The blotting membranes were incubated in blocking solution (PBS, 5% non-fat milk, 0.2% Tween-20) for 1 hour at room temperature, and then incubated in the same solution with the primary antibody (human-specific SMN/1:1000; SMN/1:5000, Transduction Laboratories, Lexington, Ky.; phospho-Stat5a/b/1:1000, Cell signaling, Beverly, Mass.; phospho-Jak2/1:1000, Upstate, Lake Placid, N.Y.; Flag BioM2/1:1000, Sigma, St. Louis, MO; c-myc/1:200, Santa Cruz Biotech, Santa Cruz, Calif.; α-Tubilin/1:10000, Upstate, Lake Placid, N.Y., MO), overnight at 4° C. The membranes were washed and incubated in the blocking solution with the proper HRP-conjugated secondary antibody at 1/5000 dilution (Chemicon, Temecula, Calif.) for 1 hour at room temperature. After washing three times in PBS containing 0.1% Tween-20, the signals were visualized by autoradiography (Fuji Medical X-ray film, Fuji Photos, Tokyo) using enhanced chemi-luminescence (ECL detection system; Perkin-Elmer, Boston, Calif.). Western blot quantification was performed by scanning the auto-radiographs with a computerized densitometer. Signal intensities were determined by densitometry analysis (Fuji film LAS-1000 plus pictography) using the program Phoreticx 1D (Phoreticx International).
(§2) Therefore, TSA, aclarubicin and sodium vanadate all induce the activation of Stat5A in motor neuron-like NSC34 cells.

Jak2 (pY1007/pY1008) = test: Signaling pathway screen in SMN2-NSC34 cells; settings: for Jak2 activation: 2-4 hours after treatment; for Jak2 (pY1007/pY1008) cellular response: SMN2-NSC34 cells; as to Jak2 (pY1007/pY1008) cellular response: key: −: decreasing; +/−: no activation; +: slight activation; ++: minor activation; +++: significant activation
Protocol: as §1, §2

JNK (pT183/pY185) = test: Signaling pathway screen in SMN2-NSC34 cells
Stat2 (pY705) = test: Signaling pathway screen in SMN2-NSC34 cells
SMN2 [2] = test: SMN2 splicing pattern, semi-quantitative RT-PCR in SMN2-NSC34 cells; parameters: key to SMN2 splicing pattern SMN2-NSC34: −: no effect; +: effective; +++: most effective; settings: SMN2-NSC34 cells; TSA 10 nM, sodium butyrate 25 mM, aclarubicin 80 nM, sodium vanadate 100 μM
Protocol: Cell culture and chemical/dsRNA treatment. Mouse embryonic fibroblasts (MEFs) were prepared using the standard protocol. Briefly, E13.5 day embryo was isolated; the uterine deciduas were cut away, and the yolk sac was removed. The embryo was then scraped out to remove non-fibroblastic tissue, and the head severed for genotyping. Embryo body was minced in 0.25% Trypsin-EDTA and incubated for 30 min. It was then added to MEF culture media, and the cell suspension spun for ˜5 min at 1,000 rpm in the tissue culture centrifuge to pellet cells. The supernatant was aspirated off and the cell pellet immediately resuspended in 10 mL of fresh MEF culture media. The MEFs were allowed to reach confluency so the cells could be passaged for further experiments. Cultured MEFs and SMN2-NSC34 cells were maintained in Dulbecco's modified Eagle medium (Invitrogen, Carlsbad, Calif.) containing 10% heat-inactivated fetal bovine serum (Hyclone, Logan, Utah) and 1% penicillin-streptomycin (Invitrogen, Carlsbad, Calif.) and were incubated at 37° C. in a 5% CO2 humidified atmosphere. The cells were plated the day preceding treatment with each chemical and harvested at the indicated time.
Semi-quantitative PCR/RT-PCR. The genomic DNA from E13.5 SMA embryos was extracted. A specific primer pair, SMN forward 5′-[…]-3′ (SEQ ID NO:21) and SMN backward 5′-[…]-3′ (SEQ ID NO:22), was designed for recognition of both murine Smn and human SMN2. The PCR program initially started with a 95° C. denaturation for 10 min, followed by 19 to 26 cycles of 95° C./1 min. 53° C./1.5 min, 72° C./2 min to assay the linear range for both Smn and SMN2. For RT-PCR assay, total RNA was extracted at indicated time points from SMN2-NSC34 cells with sodium vanadate, TSA, and aclarubicin treatment or with an increasing amount of Stat5A1*6 transfection by using the TRizol reagent (Invitrogen, Carlsbad, Calif.). To amplify the exon7 inclusion/exclusion form of SMN2 transcripts, RT-PCR were performed using a primer set P5P6 as previously described (15). The transcript from the mouse glyceraldehyde-3-phosphate dehydrogenase (Gapdh) gene or the β-Actin gene was amplified using the primer pairs: Gapdh forward: 5′-[…]-3′ (SEQ ID NO:23), and backward: 5′-[…]-3′ (SEQ ID NO:24) (56° C.), and β-Actin forward: 5′-[…]-3′ (SEQ ID NO:25), and backward 5′-[…]-3′ (SEQ ID NO:26) (59° C.), and this allowed control of equal amounts of template. […] The gel images were digitally captured with a CCD camera and analyzed with the Alphalmager™. […] Relative total SMN2 transcript levels were determined from Stat5A1*6 transfected SMN2-NSC34 cells in a minimum of three independent experiments. Differences in ratios were determined to be significant by an independent two-tailed t-test, with *, P<0.05, **, P<0.005, ***, p<0.001.

Compound: CC(=O)N[C@@H](CS)C(=O)O [N-Acetyl-L-cysteine]
- SMN2 splicing pattern MEF (SMN2 [1]): −

Compound: CCCCCCCCCCCCCC(=O)O[C@@H]1[C@@H](C)[C@@]2(O)[C@@H](C=C(CO)C[C@]3(O)C(=O)C(C)=C[C@@H]23)[C@@H]2C(C)(C)[C@]12OC(C)=O [Phorbol-12-myristate-13-acetate]
- SMN2 splicing pattern MEF (SMN2 [1]): −

Compound: CC(/C=C/C(=O)NO)=C\[C@@H](C)C(=O)c1ccc(N(C)C)cc1 [Trichostatin A (TSA), Trichostatin A]
- P38 (pT180/pY182) cellular response (P38 (pT180/pY182); 4 hrs): +/−
- P38 (pT180/pY182) cellular response (P38 (pT180/pY182); 8 hrs): +
- Stat1 (pY701) cellular response (Stat1 (pY701); 4 hrs): −
- Stat1 (pY701) cellular response (Stat1 (pY701); 8 hrs): −
- Stat6 (pT641) cellular response (Stat6 (pT641); 4 hrs): +/−
- Stat6 (pT641) cellular response (Stat6 (pT641); 8 hrs): −
- ERK1/2 (pT202/pY204) cellular response (ERK1/2 (pT202/pY204); 4 hrs): +
- ERK1/2 (pT202/pY204) cellular response (ERK1/2 (pT202/pY204); 8 hrs): +
- Stat3 (pY705) cellular response (Stat3 (pY705); 4 hrs): +
- Stat3 (pY705) cellular response (Stat3 (pY705); 8 hrs): ++
- Stat5 (pT694) cellular response (Stat5 (pT694); 4 hrs): ++
- Stat5 phosphorylation status at 8 hours (Stat5 (pT694)): remained activated
- Stat5 (pT694) cellular response (Stat5 (pT694); 8 hrs): +++
- phosphorylation level of Stat5 increased compared to control cells (Stat5 (pT694)): about 2 fold
- Jak2 activation (Jak2 (pY1007/pY1008)): found activated
- Jak2 (pY1007/pY1008) cellular response (Jak2 (pY1007/pY1008); 4 hrs): +
- Jak2 (pY1007/pY1008) cellular response (Jak2 (pY1007/pY1008); 8 hrs): +/−
- SMN2 splicing pattern MEF (SMN2 [1]): +
- influence on SMN2 expression (SMN2 [1]): found to influence SMN2 expression
- JNK (pT183/pY185) cellular response (JNK (pT183/pY185); 4 hrs): +/−
- JNK (pT183/pY185) cellular response (JNK (pT183/pY185); 8 hrs): +
- Stat2 (pY705) cellular response (Stat2 (pY705); 4 hrs): +/−
- Stat2 (pY705) cellular response (Stat2 (pY705); 8 hrs): +/−

Compound: CC1=C(/C=C/C(C)=C/C=C/C(C)=C/C(=O)O)C(C)(C)CCC1 [All-trans retinoic acid]
- SMN2 splicing pattern MEF (SMN2 [1]): −

Compound: NC(=O)NO [Hydroxyurea]
- SMN2 splicing pattern MEF (SMN2 [1]): −

Compound: CC[C@@]1(O)C[C@H](O[C@H]2C[C@H](N(C)C)[C@H](O[C@H]3C[C@H](O)[C@H](O[C@H]4CCC(=O)[C@H](C)O4)[C@H](C)O3)[C@H](C)O2)c2c(cc3c(c2O)C(=O)c2c(O)cccc2C3=O)[C@H]1C(=O)OC [Aclarubicin]
- P38 (pT180/pY182) cellular response (P38 (pT180/pY182); 4 hrs): +/−
- P38 (pT180/pY182) cellular response (P38 (pT180/pY182); 8 hrs): +/−
- Stat1 (pY701) cellular response (Stat1 (pY701); 4 hrs): +/−
- Stat1 (pY701) cellular response (Stat1 (pY701); 8 hrs): +/−
- Stat6 (pT641) cellular response (Stat6 (pT641); 4 hrs): +/−
- Stat6 (pT641) cellular response (Stat6 (pT641); 8 hrs): −
- ERK1/2 (pT202/pY204) cellular response (ERK1/2 (pT202/pY204); 4 hrs): +/−
- ERK1/2 (pT202/pY204) cellular response (ERK1/2 (pT202/pY204); 8 hrs): +/−
- Stat3 (pY705) cellular response (Stat3 (pY705); 4 hrs): +
- Stat3 (pY705) cellular response (Stat3 (pY705); 8 hrs): ++
- Stat5 (pT694) cellular response (Stat5 (pT694); 4 hrs): ++
- Stat5 phosphorylation status at 8 hours (Stat5 (pT694)): remained activated
- Stat5 (pT694) cellular response (Stat5 (pT694); 8 hrs): +++
- phosphorylation level of Stat5 increased compared to control cells (Stat5 (pT694)): about 2 fold
- Jak2 activation (Jak2 (pY1007/pY1008)): found activated
- Jak2 (pY1007/pY1008) cellular response (Jak2 (pY1007/pY1008); 4 hrs): +
- Jak2 (pY1007/pY1008) cellular response (Jak2 (pY1007/pY1008); 8 hrs): +/−
- SMN2 splicing pattern MEF (SMN2 [1]): +
- influence on SMN2 expression (SMN2 [1]): found to influence SMN2 expression
- Stat2 (pY705) cellular response (Stat2 (pY705); 4 hrs): +
- Stat2 (pY705) cellular response (Stat2 (pY705); 8 hrs): +/−

Compound: CCCC(=O)[O-].[Na+] [Sodium butyrate]
- SMN2 splicing pattern MEF (SMN2 [1]): +
- SMN2 splicing pattern SMN2-NSC34 (SMN2 [2]): +
